# Reference: patent US8669233B2, “Combination of compounds for treating or preventing skin diseases” (Galderma Research & Development, priority 2009, dated 2014)
# Columns and labels:
# [1] = tested on: TPA-induced mouse ear edema; assay: TPA-induced mouse ear edema test, single topical application; assay type: in vivo, Balb/c mice; conditions: TPA 0.01%, T+6 h; for reduction in the ear edema (TPA): single topical application
# Description: The test compounds are diluted in the TPA solution. […] Brimonidine is added at the concentration of 0.2%. […] FIG. 2 represents the average measurement of the ear edema thickness as a function of the dose of test compound as %, i.e. the average measurement of the ear thickness after treatment, from which is subtracted the average measurement of the thickness of the ear obtained with the control (nontreated) group, […]
# [2] = tested on: arachidonic acid-induced mouse ear edema; assay: Arachidonic acid-induced mouse ear edema test, single topical application; assay type: in vivo, Balb/c mice; conditions: 4% arachidonic acid
# Description: Evaluation of the Anti-Inflammatory Activity of Ivermectin and of Brimonidine after a Single Topical Application in the Arachidonic Acid-Induced Mouse Ear Edema Test on Balb/c Mice
# Arachidonic acid is dissolved in a mixture of THF/methanol at 4%.
# Ivermectin is dissolved in the solution of arachidonic acid (AA) and tested at the concentration of 1%.
# 20 μl of the solution are applied to the internal surface of the right ear.
# The thickness of the ear is measured at T+1 h, T+2 h and T+4 h.
# FIG. 1 represents the average measurement of the thickness of the ear edema, i.e. the average measurement of the thickness of the ear after treatment, from which is subtracted the average measurement of the thickness of the ear obtained with the control (nontreated) group, this being after treatment with 4% arachidonic acid ( ? ), 1% ivermectin (□), 0.2% brimonidine ( ? ), and the combination of ivermectin and brimonidine ( ? ).
compound,measurement,setting,value
Brc1c(NC2=NCCN2)ccc2nccnc12 [brimonidine],reduction of the mouse ear edema (TPA),[1]; brimonidine alone 0.2%,50%
Ivermectin,reduction in the ear edema (TPA),[1]; ivermectin 0.3%,57%
same,reduction in the ear edema (TPA),[1]; ivermectin 1%,90%
same,reduction of the ear edema caused by arachidonic acid,"[2]; ivermectin alone 1%, single topical application",56%
COc1ccc2c(c1)c(CC(=O)O)c(C)n2C(=O)c1ccc(Cl)cc1 [Indomethacin],inhibition of the ear edema caused by arachidonic acid,"[2]; indomethacin at 5%, topical, Balb/c mice",95%
"CCCCC(=O)O[C@]1(C(=O)CO)[C@@H](C)C[C@H]2[C@@H]3CCC4=CC(=O)C=C[C@]4(C)[C@@]3(F)[C@@H](O)C[C@@]21C [β-methasone valerate (BMV), β-methasone valerate]",inhibition of the mouse ear edema (TPA),[1]; BMV at 0.01%,89%
